For series [1] the following is noted: in vivo; cited from earlier work.
The test system of series [2] is Naegleria fowleri. The note with it: Mexico, Arkansas, and Florida patients; cited from earlier work.
A short description of series [3]: solubility of miltefosine. Type of series: physicochemical. From the text: The chemical name of miltefosine is 2-[[(hexadecyloxy)hydroxyphosphenyl]oxy]-N,N,N-trimethylethylammonium inner salt, also known as hexadecylphosphocholine, represented by the formula (I). The empirical formula is C21H46NO4P, yielding a molecular weight of 407.57 g/mol.
Thus, according to certain aspects of the presently disclosed invention, the miltefosine may be administered as an oral formulation that is a liquid, such as included in a liquid capsule that may be swallowed, or as a formulation that a patient may drink. The miltefosine may be applied directly to body tissues such as skin or cornea. Alternatively, the miltefosine may be formulated as a solution that may be administered intravenously, such as formulated in a sterile saline solution.

The test system of series [4] is Acanthamoeba. The conditions noted are these: topical administration, 160 μM, 28 days treatment; hamsters exposed to Acanthamoeba for 5 days; cited from earlier work.
Series [5] deals with Acanthamoeba. Nature of the series: patients with Acanthamoeba keratitis treated with systemically administered (oral) miltefosine. Type of series: in vivo, human. The text has this: Such infections have typically been hard to treat as the standard topical treatments generally don't permeate through the various tissue layers to the cysts of the amoeba. […] Previous treatment protocols for Acanthamoeba keratitis have only included topically applied agents such as biocides, and it is not clear from reported results whether cyst reduction was present at the end of these treatment protocols. Moreover, prior to 1996, every patient diagnosed with Acanthamoeba keratitis eventually lost the infected eye.
Since AK is commonly misdiagnosed, the stage of the disease when it is successfully identified varies greatly. […] A major advantage of the presently disclosed methods is that such patients could receive steroids after surgery while also receiving either or both of the systemic and topical formulations of miltefosine, and optional additional second agents.
Medication was discontinued for one week, during which time the patient experienced renewed symptoms.

The subject of series [6] is Naegleria fowleri. The conditions noted are these: Naegleria fowleri in the laboratory; cited from earlier work.

Turning to “2-[[(hexadecyloxy)hydroxyphosphenyl]oxy]-N,N,N-trimethylethylammonium inner salt [miltefosine]”, the half-life result in series [1] was “long half-life”. The “survival of PAM patients” value with Naegleria fowleri [2] is “survived”. In addition, the solubility result is “freely soluble” in series [3] (aqueous solutions); “freely soluble” in series [3] (water, 0.1 N HCl or NaOH, methanol, and ethanol). Further, the “complete cure of hamsters” value with Acanthamoeba [4] is on record as 85%. In addition, the “efficacy against Acanthamoeba keratitis, active feeding amoeba and cysts in the eyes” value in the series on Acanthamoeba [5] (oral formulation, over eighty patients, more than a third treated for at least two months) was “effective to treat Acanthamoeba keratitis and was able to kill both active feeding amoeba and cysts in the eyes”. Also, in the series with Acanthamoeba [5] (patient, oral 50 mg TID just over a month, then 50 mg BID for an additional two months, with short course of oral steroids), the “outcome of case study (AK infection)” value is “clear the AK infection”. Also, the amoeba-killing activity entry in the series on Naegleria fowleri [6] is on record as “amoeba-killing activity”.

Values taken from patent US10806741B2, “Treatments for free-living amoebic infections” (Profounda, Inc., priority 2018, dated 2020).
